Experiments:
[1] = Biodistribution: organ distribution of F-18 signal in mice; format: in vivo, male NMRI mice; conditions: for Organ distribution of F-18 signal, intestine: intestine (with content); for Organ distribution of F-18 signal, stomach: stomach (without content)
Protocol: Biodistribution and excretion studies were performed in male NMRI mice (body weight app. 30g; 3 animals per time point). The animals were kept under normal laboratory conditions at a temperature of 22±2° C. and a dark/light rhythm of 12 hours. Food and water were provided ad libitium. During an acclimation period of at least 3 days before the beginning of the study animals were clinically examined to ascertain the absence of abnormal clinical signs. At 2, 5, 30, 60, 240 min post intravenous injection via the tail vein of ca. 150 kBq in 100 μl of the test compound, urine and feces were quantitatively collected. At the same time points, animals were sacrificed by decapitation and under isoflurane anaesthesia and the following organs and tissues were removed for the determination of radioactivity using a gamma-counter: spleen, liver, kidney, lung, femur, heart, brain, fat, thyroid, muscle, skin, blood, tail, stomach (without content), testicle, intestine (with content), pancreas, adrenals, and the remaining body. For analysis the decay corrected percentage of the injected dose per tissue weight (% ID/g±standard deviation) was calculated.

Aβ plaques = target: T1, Aβ plaques (Homo sapiens, UniProt P05067); assay: Autoradiographical analysis of binding to cryosections from cortex of AD patients and controls; conditions: F-18 labeled compound; Alzheimer's disease patients (AD) vs controls without Aβ plaques
T1 construct: controls without Aβ plaques; from tissue; host or cells: frontal lobe / cortex sections (frozen and paraffin) from AD patients, FTD patients and age-matched controls
T1 sequence (P05067 672-713 limits assumed): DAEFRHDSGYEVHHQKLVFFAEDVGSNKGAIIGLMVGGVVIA
Excerpt: Fresh frozen as well as paraffin embedded sections of the frontal lobe from Alzheimer's dementia patients, frontotemporal dementia patients and age matched controls were used for the study. Frozen sections, sliced at 18 μm thickness on a cryostate (Leica, Germany) and paraffin sections, sliced on a sliding microtom (Leica) at a thickness of 6 μm, were mounted onto glass slides (Superfrost Plus, Fa.Menzel, Braunschweig Germany). Frozen sections were allowed to adhere to the slides for several nights at −20° C. The paraffin sections were deparaffinized using routine histological methods. For binding studies sections were incubated with the F-18 labeled test compound at 10 Bq/μl diluted in 25 mM Hepes buffer, pH 7.4, 0.1% (BSA) (200-300 μl/slide) for 1.5 hour at room temperature in a humidified chamber. For blocking experiments a 1000-fold access of the unlabeled test substance was added to the incubation mixture. After hybridization, sections were washed four times with Hepes buffer, 0.1% BSA (or alternatively two times with 40% ethanol) and finally dipped two times into dest. water for 10 sec. The air-dried sections were exposed to imaging plates and signals were detected by a phosphoimager device (Fuji BAS5000).

O=C(NCC(=O)N1CCN(c2ccc(OCc3ccccc3)cc2)CC1)c1cccc(OCC[18F])c1 [Example 3g, N-{2-[4-(4-Benzyloxy-phenyl)-piperazin-1-yl]-2-oxo-ethyl}-3-(2-[F-18]fluoro-ethoxy)benzamide]
Organ distribution of F-18 signal, adrenals ([1]; 2 min post i.v. injection): 7.57 % ID/g | Organ distribution of F-18 signal, adrenals ([1]; 5 min post i.v. injection): 10.67 % ID/g | Organ distribution of F-18 signal, adrenals ([1]; 30 min post i.v. injection): 4.49 % ID/g | Organ distribution of F-18 signal, adrenals ([1]; 60 min post i.v. injection): 1.77 % ID/g | Organ distribution of F-18 signal, adrenals ([1]; 240 min post i.v. injection): 1.03 % ID/g | Organ distribution of F-18 signal, blood ([1]; 2 min post i.v. injection): 1.72 % ID/g | Organ distribution of F-18 signal, blood ([1]; 5 min post i.v. injection): 2.12 % ID/g | Organ distribution of F-18 signal, blood ([1]; 30 min post i.v. injection): 1.85 % ID/g | Organ distribution of F-18 signal, blood ([1]; 60 min post i.v. injection): 1.32 % ID/g | Organ distribution of F-18 signal, blood ([1]; 240 min post i.v. injection): 0.57 % ID/g | Organ distribution of F-18 signal, brain ([1]; 2 min post i.v. injection): 5.15 % ID/g | Organ distribution of F-18 signal, brain ([1]; 5 min post i.v. injection): 4.14 % ID/g | Organ distribution of F-18 signal, brain ([1]; 30 min post i.v. injection): 1.66 % ID/g | Organ distribution of F-18 signal, brain ([1]; 60 min post i.v. injection): 0.93 % ID/g | Organ distribution of F-18 signal, brain ([1]; 240 min post i.v. injection): 0.42 % ID/g | Organ distribution of F-18 signal, fat ([1]; 2 min post i.v. injection): 1.97 % ID/g | Organ distribution of F-18 signal, fat ([1]; 5 min post i.v. injection): 2.44 % ID/g | Organ distribution of F-18 signal, fat ([1]; 30 min post i.v. injection): 4.26 % ID/g | Organ distribution of F-18 signal, fat ([1]; 60 min post i.v. injection): 2.38 % ID/g | Organ distribution of F-18 signal, fat ([1]; 240 min post i.v. injection): 0.34 % ID/g | Organ distribution of F-18 signal, femur ([1]; 2 min post i.v. injection): 1.95 % ID/g | Organ distribution of F-18 signal, femur ([1]; 5 min post i.v. injection): 1.79 % ID/g | Organ distribution of F-18 signal, femur ([1]; 30 min post i.v. injection): 1.05 % ID/g | Organ distribution of F-18 signal, femur ([1]; 60 min post i.v. injection): 1.11 % ID/g | Organ distribution of F-18 signal, femur ([1]; 240 min post i.v. injection): 3.06 % ID/g | Organ distribution of F-18 signal, heart ([1]; 2 min post i.v. injection): 15.57 % ID/g | Organ distribution of F-18 signal, heart ([1]; 5 min post i.v. injection): 8.25 % ID/g | Organ distribution of F-18 signal, heart ([1]; 30 min post i.v. injection): 3.47 % ID/g | Organ distribution of F-18 signal, heart ([1]; 60 min post i.v. injection): 2.07 % ID/g | Organ distribution of F-18 signal, heart ([1]; 240 min post i.v. injection): 0.61 % ID/g | Organ distribution of F-18 signal, intestine ([1]; 2 min post i.v. injection): 1.93 % ID/g | Organ distribution of F-18 signal, intestine ([1]; 5 min post i.v. injection): 1.87 % ID/g | Organ distribution of F-18 signal, intestine ([1]; 30 min post i.v. injection): 4.58 % ID/g | Organ distribution of F-18 signal, intestine ([1]; 60 min post i.v. injection): 6.47 % ID/g | Organ distribution of F-18 signal, intestine ([1]; 240 min post i.v. injection): 8.50 % ID/g | Organ distribution of F-18 signal, kidney ([1]; 2 min post i.v. injection): 15.52 % ID/g | Organ distribution of F-18 signal, kidney ([1]; 5 min post i.v. injection): 14.38 % ID/g | Organ distribution of F-18 signal, kidney ([1]; 30 min post i.v. injection): 11.43 % ID/g | Organ distribution of F-18 signal, kidney ([1]; 60 min post i.v. injection): 7.70 % ID/g | Organ distribution of F-18 signal, kidney ([1]; 240 min post i.v. injection): 1.05 % ID/g | Organ distribution of F-18 signal, liver ([1]; 2 min post i.v. injection): 6.35 % ID/g | Organ distribution of F-18 signal, liver ([1]; 5 min post i.v. injection): 13.36 % ID/g | Organ distribution of F-18 signal, liver ([1]; 30 min post i.v. injection): 8.75 % ID/g | Organ distribution of F-18 signal, liver ([1]; 60 min post i.v. injection): 5.04 % ID/g | Organ distribution of F-18 signal, liver ([1]; 240 min post i.v. injection): 1.44 % ID/g | Organ distribution of F-18 signal, lung ([1]; 2 min post i.v. injection): 5.58 % ID/g | Organ distribution of F-18 signal, lung ([1]; 5 min post i.v. injection): 4.05 % ID/g | Organ distribution of F-18 signal, lung ([1]; 30 min post i.v. injection): 2.55 % ID/g | Organ distribution of F-18 signal, lung ([1]; 60 min post i.v. injection): 1.66 % ID/g | Organ distribution of F-18 signal, lung ([1]; 240 min post i.v. injection): 0.59 % ID/g | Organ distribution of F-18 signal, muscle ([1]; 2 min post i.v. injection): 3.95 % ID/g | Organ distribution of F-18 signal, muscle ([1]; 5 min post i.v. injection): 3.17 % ID/g | Organ distribution of F-18 signal, muscle ([1]; 30 min post i.v. injection): 1.95 % ID/g | Organ distribution of F-18 signal, muscle ([1]; 60 min post i.v. injection): 1.31 % ID/g | Organ distribution of F-18 signal, muscle ([1]; 240 min post i.v. injection): 0.30 % ID/g | Organ distribution of F-18 signal, pancreas ([1]; 2 min post i.v. injection): 4.96 % ID/g | Organ distribution of F-18 signal, pancreas ([1]; 5 min post i.v. injection): 4.26 % ID/g | Organ distribution of F-18 signal, pancreas ([1]; 30 min post i.v. injection): 2.21 % ID/g | Organ distribution of F-18 signal, pancreas ([1]; 60 min post i.v. injection): 1.22 % ID/g | Organ distribution of F-18 signal, pancreas ([1]; 240 min post i.v. injection): 0.32 % ID/g | Organ distribution of F-18 signal, skin ([1]; 2 min post i.v. injection): 1.72 % ID/g | Organ distribution of F-18 signal, skin ([1]; 5 min post i.v. injection): 2.15 % ID/g | Organ distribution of F-18 signal, skin ([1]; 30 min post i.v. injection): 1.93 % ID/g | Organ distribution of F-18 signal, skin ([1]; 60 min post i.v. injection): 1.29 % ID/g | Organ distribution of F-18 signal, skin ([1]; 240 min post i.v. injection): 0.42 % ID/g | Organ distribution of F-18 signal, spleen ([1]; 2 min post i.v. injection): 1.73 % ID/g | Organ distribution of F-18 signal, spleen ([1]; 5 min post i.v. injection): 2.22 % ID/g | Organ distribution of F-18 signal, spleen ([1]; 30 min post i.v. injection): 1.28 % ID/g | Organ distribution of F-18 signal, spleen ([1]; 60 min post i.v. injection): 0.86 % ID/g | Organ distribution of F-18 signal, spleen ([1]; 240 min post i.v. injection): 0.36 % ID/g | Organ distribution of F-18 signal, stomach ([1]; 2 min post i.v. injection): 4.78 % ID/g | Organ distribution of F-18 signal, stomach ([1]; 5 min post i.v. injection): 4.49 % ID/g | Organ distribution of F-18 signal, stomach ([1]; 30 min post i.v. injection): 2.20 % ID/g | Organ distribution of F-18 signal, stomach ([1]; 60 min post i.v. injection): 1.53 % ID/g | Organ distribution of F-18 signal, stomach ([1]; 240 min post i.v. injection): 0.82 % ID/g | Organ distribution of F-18 signal, tail ([1]; 2 min post i.v. injection): 8.94 % ID/g | Organ distribution of F-18 signal, tail ([1]; 5 min post i.v. injection): 9.06 % ID/g | Organ distribution of F-18 signal, tail ([1]; 30 min post i.v. injection): 4.73 % ID/g | Organ distribution of F-18 signal, tail ([1]; 60 min post i.v. injection): 2.57 % ID/g | Organ distribution of F-18 signal, tail ([1]; 240 min post i.v. injection): 1.98 % ID/g | Organ distribution of F-18 signal, testicle ([1]; 2 min post i.v. injection): 1.19 % ID/g | Organ distribution of F-18 signal, testicle ([1]; 5 min post i.v. injection): 1.58 % ID/g | Organ distribution of F-18 signal, testicle ([1]; 30 min post i.v. injection): 1.44 % ID/g | Organ distribution of F-18 signal, testicle ([1]; 60 min post i.v. injection): 1.84 % ID/g | Organ distribution of F-18 signal, testicle ([1]; 240 min post i.v. injection): 0.38 % ID/g | Organ distribution of F-18 signal, thyroid ([1]; 2 min post i.v. injection): 3.87 % ID/g | Organ distribution of F-18 signal, thyroid ([1]; 5 min post i.v. injection): 3.67 % ID/g | Organ distribution of F-18 signal, thyroid ([1]; 30 min post i.v. injection): 1.78 % ID/g | Organ distribution of F-18 signal, thyroid ([1]; 60 min post i.v. injection): 1.04 % ID/g | Organ distribution of F-18 signal, thyroid ([1]; 240 min post i.v. injection): 0.56 % ID/g | autoradiographical analysis of binding to cryosections from cortex (Aβ plaques): Specific binding in plaque-rich regions of AD samples

Reference: patent US20110250135A1, “Piperazine Derivatives for Binding and Imaging Amyloid Plaques and Their Use” (Bayer Schering Pharma Aktiengesellschaft, priority 2008, published 2011)
